“And” between values parts separate entries of the source, which are not always exact repeats. Equal values may be shown once. Read-outs that look alike come from different tables or passages of the source.
Key:
Type in all cases: biochemical
ovine COX-1 = biological target: T1, ovine COX-1 (Ovis aries, UniProt P05979); test: COX-1 inhibition, oxygraphic method (oxygen electrode); conditions: 10 μM arachidonic acid; no preincubation phase; approximate, from initial velocities
T1 construct: purchased Cayman Chemical Co. 60100
T1 sequence (P05979 25-600): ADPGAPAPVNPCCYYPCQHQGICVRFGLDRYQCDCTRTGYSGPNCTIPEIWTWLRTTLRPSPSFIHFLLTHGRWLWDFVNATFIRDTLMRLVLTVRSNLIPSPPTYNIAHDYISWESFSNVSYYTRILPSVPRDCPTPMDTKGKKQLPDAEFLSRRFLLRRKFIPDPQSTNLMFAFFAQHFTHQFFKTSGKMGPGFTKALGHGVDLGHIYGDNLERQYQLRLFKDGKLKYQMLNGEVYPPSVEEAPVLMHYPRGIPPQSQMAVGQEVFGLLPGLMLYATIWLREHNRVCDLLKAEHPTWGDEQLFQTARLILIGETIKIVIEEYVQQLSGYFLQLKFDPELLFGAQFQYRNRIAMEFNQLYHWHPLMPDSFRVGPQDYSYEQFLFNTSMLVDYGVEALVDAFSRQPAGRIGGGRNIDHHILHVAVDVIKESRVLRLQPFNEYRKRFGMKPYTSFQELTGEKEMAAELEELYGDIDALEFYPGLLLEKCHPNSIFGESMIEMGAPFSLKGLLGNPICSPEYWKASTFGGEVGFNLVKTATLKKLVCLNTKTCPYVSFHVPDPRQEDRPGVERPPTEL
Protocol: (§1) The assay was performed according to Meade et al. with minor modifications. An oxygen electrode chamber with integral stirring (Oxygraph System, Hansatech Instruments, King´s Lynn, U.K.) was calibrated daily to ambient temperature and air pressure. The assay buffer contained 0.1 M Tris-HCl buffer pH 7.4, 1 μM haematin, 2 mM phenol, 5 mM EDTA, 10 μM substrate (arachidonic acid or 2-AG) (final assay volume was 2 ml). After addition of (R)- or (S)-Flu-AM1 dissolved in ethanol (final assay concentration 1%), a baseline was established for 5 min before initiation of reaction by addition of 200 units ovine COX-1 or human recombinant COX-2. The change in oxygen consumption as a measurement of enzyme activity was monitored for approximately 5 min.

human recombinant COX-2 = biological target: T2, human recombinant COX-2 (Homo sapiens, UniProt P35354); test: COX-2 inhibition, oxygraphic method (oxygen electrode); conditions: no preincubation phase, approximate, from initial velocities
T2 construct: purchased Cayman Chemical Co. 60122
T2 sequence (P35354 18-604): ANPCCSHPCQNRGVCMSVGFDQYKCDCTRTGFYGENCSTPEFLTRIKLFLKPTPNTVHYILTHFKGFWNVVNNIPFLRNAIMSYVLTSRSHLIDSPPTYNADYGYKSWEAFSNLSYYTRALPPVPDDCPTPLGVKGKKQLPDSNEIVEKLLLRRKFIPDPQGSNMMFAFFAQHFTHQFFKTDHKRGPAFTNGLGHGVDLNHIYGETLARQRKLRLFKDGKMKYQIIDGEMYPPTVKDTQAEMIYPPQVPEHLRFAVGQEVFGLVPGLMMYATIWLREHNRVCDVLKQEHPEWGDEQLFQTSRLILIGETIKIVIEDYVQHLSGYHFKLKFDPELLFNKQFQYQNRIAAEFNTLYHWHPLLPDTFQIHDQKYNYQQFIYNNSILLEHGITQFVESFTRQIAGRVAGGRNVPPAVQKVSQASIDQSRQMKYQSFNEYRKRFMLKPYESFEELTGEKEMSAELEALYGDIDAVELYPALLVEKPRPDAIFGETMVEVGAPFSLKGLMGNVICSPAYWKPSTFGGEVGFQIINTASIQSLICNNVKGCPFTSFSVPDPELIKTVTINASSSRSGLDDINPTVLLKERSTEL
Protocol: as §1

rat brain FAAH = biological target: T3, rat brain FAAH (Rattus norvegicus, UniProt P97612); test: [3H]AEA hydrolysis in rat brain homogenates; conditions: current authors, unpublished data; read-out: IC50 inhibition of [3H]AEA hydrolysis in rat brain homogenates
T3 construct: the racemate was studied in rat brain homogenates, whereas mouse brain homogenates were used here; from tissue; host or cells: rat brain homogenates
T3 sequence (P97612 1-579): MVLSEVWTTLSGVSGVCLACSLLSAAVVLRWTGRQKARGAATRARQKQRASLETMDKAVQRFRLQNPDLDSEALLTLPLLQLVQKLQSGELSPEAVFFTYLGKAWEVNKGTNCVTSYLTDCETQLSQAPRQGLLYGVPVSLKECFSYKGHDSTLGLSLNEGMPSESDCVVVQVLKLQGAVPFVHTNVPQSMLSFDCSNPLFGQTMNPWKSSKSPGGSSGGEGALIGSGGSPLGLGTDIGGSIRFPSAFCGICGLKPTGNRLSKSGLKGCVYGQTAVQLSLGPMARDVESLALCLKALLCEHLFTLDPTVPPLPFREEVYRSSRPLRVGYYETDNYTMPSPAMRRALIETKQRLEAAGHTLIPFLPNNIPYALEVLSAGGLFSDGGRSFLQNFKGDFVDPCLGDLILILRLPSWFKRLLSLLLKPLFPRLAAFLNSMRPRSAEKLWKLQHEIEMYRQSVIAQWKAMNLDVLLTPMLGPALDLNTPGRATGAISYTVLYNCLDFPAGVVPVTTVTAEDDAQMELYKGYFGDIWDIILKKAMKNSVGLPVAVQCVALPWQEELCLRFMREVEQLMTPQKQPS

mouse brain FAAH = biological target: T4, mouse brain FAAH (Mus musculus, UniProt O08914); test: FAAH assay, [3H]AEA hydrolysis in mouse brain homogenates; conditions: 0.5 μM [3H]AEA; read-out: IC50 inhibition of [3H]AEA hydrolysis in mouse brain homogenates
T4 construct: Brains from male B6CBAF1/J mice, stored at -80°C, were thawed, weighed and homogenized in cold buffer; from tissue; host or cells: brain of male B6CBAF1/J mice (washed membrane pellet homogenate)
T4 sequence (O08914 1-579): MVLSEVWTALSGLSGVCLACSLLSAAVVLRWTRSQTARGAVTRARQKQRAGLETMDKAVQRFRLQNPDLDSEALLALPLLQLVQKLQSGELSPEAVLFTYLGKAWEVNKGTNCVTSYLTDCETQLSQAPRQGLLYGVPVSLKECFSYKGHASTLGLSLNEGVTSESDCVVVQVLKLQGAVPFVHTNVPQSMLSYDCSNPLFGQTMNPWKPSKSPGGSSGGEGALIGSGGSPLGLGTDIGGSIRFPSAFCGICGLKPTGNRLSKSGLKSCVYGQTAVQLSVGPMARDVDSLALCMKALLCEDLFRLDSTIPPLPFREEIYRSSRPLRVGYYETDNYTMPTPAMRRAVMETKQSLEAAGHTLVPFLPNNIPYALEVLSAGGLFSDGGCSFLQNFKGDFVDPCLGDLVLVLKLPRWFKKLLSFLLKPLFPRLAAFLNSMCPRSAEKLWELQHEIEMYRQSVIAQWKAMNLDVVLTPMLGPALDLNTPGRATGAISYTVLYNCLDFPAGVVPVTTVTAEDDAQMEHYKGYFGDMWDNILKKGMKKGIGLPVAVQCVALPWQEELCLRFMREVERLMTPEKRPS
Protocol: Brains from male B6CBAF1/J mice, stored at -80°C, were thawed, weighed and homogenized in cold buffer (20 mM HEPES, 1 mM MgCl2 pH 7.0). Homogenates were centrifuged (35,000 g at 4°C for 20 min) before the pellet was resuspended in cold homogenization buffer. Centrifugation and resuspension was repeated twice. The suspension was incubated at 37°C for 15 min to degrade any endogenous substrate able to interfere with the FAAH assay. After centrifugation (35,000 g at 4°C for 20 min), the pellet was resuspended in cold buffer (50 mM Tris-HCl, 1mM EDTA, 3 mM MgCl2, pH 7.4). The protein concentration was determined according to the Bradford assay after which the samples were frozen in aliquots at -80°C. Ethical permission for the animal experiments was obtained from the local animal research ethical committee (Umeå Ethical Committee for Animal Research, Umeå, Sweden). FAAH was assayed using the method of Boldrup et al., whereby homogenates (0.3 μg protein / assay) in assay buffer (10 mM Tris-HCl, 1mM EDTA, pH 7.4), test compounds and substrate ([^3H]AEA in 10 mM Tris-HCl, 1mM EDTA, pH 7.4 containing 10 mg/ml fatty acid-free bovine serum, assay concentration 0.5 μM unless otherwise stated) were incubated for 10 min at 37°C. Thereafter, 400 μL activated charcoal (80 μL activated charcoal + 320 μL 0.5 M HCl) was added and the samples were placed on ice and centrifuged at 2500 rpm for 10 min. Aliquots (200 μL) of the supernatant was analyzed for tritium content by liquid scintillation spectroscopy with quench correction.

IC50 (ovine COX-1): 3000 nM and ~3000 nM
IC50 (human recombinant COX-2; 10 μM 2-AG, read-out: IC50 COX-2 (2-AG)): 700 nM and ~700 nM
IC50 (human recombinant COX-2; 10 μM arachidonic acid, read-out: IC50 COX-2 (arachidonic acid)): 10000 nM and ~10000 nM
IC50 (rat brain FAAH): 990 nM
IC50 (mouse brain FAAH): 11000 nM
Structure (SMILES): Cc1cccnc1NC(=O)[C@@H](C)c1ccc(-c2ccccc2)c(F)c1 [(S)-Flu-AM1]

From article PMC4583449, “Characterisation of (R)-2-(2-Fluorobiphenyl-4-yl)-N-(3-Methylpyridin-2-yl)Propanamide as a Dual Fatty Acid Amide Hydrolase: Cyclooxygenase Inhibitor” (PLoS ONE, 2015)
